Experimental data as given in paper PMC7284125, “Identification of annotated bioactive molecules that impair motility of the blood fluke Schistosoma mansoni” (International Journal for Parasitology: Drugs and Drug …, 2020).
Read-outs that look alike come from different tables or passages of the source.

Experiments:
[1] = system: S. mansoni schistosomulae; experiment: Phenotypic primary screen assay on schistosomulae (phenotype; viability by methylene blue dye exclusion); format: cell-based, Schistosoma mansoni; details: three-day-old schistosomulae, 10 μM, 24 h; estimated 5 days post compound exposure
Protocol: Puerto Rican strain Biomphalaria glabrata snails infected with S. mansoni were kindly provided by Dr. Fred Lewis (Biomedical Research Institute and BEI Resources, MD, USA). Schistosomulae were obtained by exposing six to eight weeks-old snails to continuous light for 2 h at 32 °C. […] At this point, animals with internal dark granulations and with no observable body contraction/relaxation cycles were considered dead.
Schistosomulae were monitored under a stereo microscope (SMZ1270, Nikon). Phenotypic observations were made by analyzing schistosomulae, 24 h after drug addition to assess any immediate effect and five days post-compound exposure to observe long-term impacts on both the movement and overall body shape in comparison to control animals exposed to DMSO only.

[2] = system: S. mansoni schistosomulae; experiment: Motility assay on schistosomulae (pixel displacement, relative to DMSO control); format: cell-based, Schistosoma mansoni; details: for activity at 1 µM: Schistosoma mansoni, read-out: Fractional motility; for motility in extended assay with reduced incubation times, in words: three-day old schistosomulae, incubation 1 h, 3 h, 6 h
Protocol: Puerto Rican strain Biomphalaria glabrata snails infected with S. mansoni were kindly provided by Dr. Fred Lewis (Biomedical Research Institute and BEI Resources, MD, USA). Schistosomulae were obtained by exposing six to eight weeks-old snails to continuous light for 2 h at 32 °C. The resulting suspension of cercaria was then mechanically transformed as described ([Lewis, 2001]) and cultured in Opti-MEM/antibiotics (Thermo Fisher Scientific, Waltham, MA) containing 100 μg/mL streptomycin and 100 units/ml penicillin supplemented with 5% fetal bovine serum (FBS; Thermo Fisher). Parasite cultures were incubated at 37 °C with 5% CO2 for at least 10 days with no apparent loss of viability. At this point, animals with internal dark granulations and with no observable body contraction/relaxation cycles were considered dead.
(§1) Schistosomulae (200/well) and adult parasites (unpaired worms) were maintained in 300 μL OPTI-MEM with 5% dialyzed FBS (without antibiotics) and exposed to compounds at 1 and 10 μM for 24 h. A kinetic assay consisting of 1, 3, 6 and 12 h incubation times was performed on selected hits by motility monitoring using a stereo microscope (SMZ1270, Nikon) for adults and an inverted microscope for schistosomulae (eclipse TE2000-U, Nikon) connected to a monochrome camera (DS-Qi2, Nikon) for image acquisition. Images were recorded at a rate of 10 frames/s for a period of 1 min and videos were analyzed using ImageJ software (version 1.41, NIH, USA). Parasite movement quantification and data analysis protocols were applied using the pixel displacement method ([Patocka et al., 2014]; [Rashid et al., 2015]) and compared to control parasites treated with DMSO. Parasites were then washed several times in Opti-MEM, 5% FBS and incubated up to an additional three days (schistosomulae) or five days (adult worms) at 37 °C, 5% CO2 and motility was recorded as described above.

S. mansoni adult worms = experiment: Motility assay on adult parasites (pixel displacement, relative to DMSO control); format: cell-based, Schistosoma mansoni; details: for motility phenotype in words: adults
Protocol: Adult parasites were collected from 40 day-old female CD1 mice (Charles River) previously inoculated by the tail infection method ([Lewis, 2001]). Six weeks post-infection, mice were sacrificed, and adult worms extracted after perfusion of in the hepatic portal vein and mesenteric venules ([Lewis, 2001]). Animal procedures were reviewed and approved by the Facility Animal Care Committee of McGill University (Protocol No. 3346) and were conducted in accordance with the guidelines of the Canadian Council on Animal Care.
as §1

[3] = system: S. mansoni schistosomulae; experiment: Phenotypic primary screen assay on schistosomulae (phenotype; viability by methylene blue dye exclusion); format: cell-based; details: Schistosoma mansoni; three-day-old schistosomulae, 10 μM, 24 h; calculated 5 days post compound exposure; read-out: Viability (%)
[4] = 120 h, schistosomulae, secondary screen, 24h exposure, read at D5, 1 µM
[5] = schistosomulae, secondary screen, 24h exposure, read at D1, 1 µM
[6] = schistosomulae, secondary screen, 24h exposure, read at D1, 10 µM
[7] = schistosomulae, secondary screen, 24h exposure, read at D5, 10 µM
[8] = secondary screen, 10 μM, D1, Female adult worms
[9] = secondary screen, 10 μM, D1, Male adult worms
[10] = secondary screen, 10 μM, D5, Female adult worms
[11] = secondary screen, 10 μM, D5, Male adult worms
[12] = schistosomulae, 1h exposure, read at D1, 10 µM
[13] = schistosomulae, 1h exposure, read at D5, 10 µM
[14] = schistosomulae, 3h exposure, read at D1, 10 µM
[15] = schistosomulae, 3h exposure, read at D5, 10 µM
[16] = schistosomulae, 6h exposure, read at D1, 10 µM
[17] = schistosomulae, 6h exposure, read at D5, 10 µM

SMILES | Phenotype [1] | activity at 1 µM [2, 4] [%] | activity at 1 µM [2, 5] [%] | Fractional motility [2, 6] | Fractional motility [2, 7] | Fractional motility (S. mansoni adult worms; [8]) | Fractional motility (S. mansoni adult worms; [9]) | Fractional motility (S. mansoni adult worms; [10]) | Fractional motility (S. mansoni adult worms; [11]) | viability at 10 µM [3] [%] | also measured
C=CC[C@]1(O)CC[C@H]2[C@@H]3CCC4=CC(=O)CCC4=C3C=C[C@@]21C [Altrenogest] | elongated | -12 | 147 | 10.00 | -0.06 | -0.04 | -0.0348 | -0.50 | 0.0449 | 90 | 
CNCc1ccc(-c2cc(-c3nc(-c4ccc(S(=O)(=O)C(C)C)cc4)cnc3N)on2)cc1 [VE-822] | dark, granulated | -14 | -37 | -0.68 | -0.83 | -0.46 | -0.30 | -0.67 | -0.66 | 11.5 | Fractional motility [2, 12]: -0.26; Fractional motility [2, 13]: -0.63; Fractional motility [2, 14]: -0.72; Fractional motility [2, 15]: -0.69; Fractional motility [2, 16]: 3.57; Fractional motility [2, 17]: 0.02; motility in extended assay with reduced incubation times, in words [2]: did not exhibit a significant change before the 24 hr incubation cut-off; motility phenotype in words (S. mansoni adult worms; 10 μM, long-term after washout): Significant hypomotility
NCC(=O)Nc1ccc(-n2nc(C(F)(F)F)cc2-c2ccc3c(ccc4ccccc43)c2)cc1 [OSU-03012] | big, granulated | 26 | 26 | -1.00 | -0.72 | 0.79 | 1.37 | -0.15 | 0.62 | 1 | 
COc1cc(N2CCN(C)CC2)ccc1Nc1nccc(-c2cn(C)c3cnccc23)n1 [AZ191] | granulated, blebbing | 49 | -38 | -0.69 | -0.09 | -0.48 | 0.25 | -0.27 | 2.64 | 89.5 | 
O=C1Cc2cc(CCN3CCN(c4nsc5ccccc45)CC3)c(Cl)cc2N1 [Ziprasidone] | dark, granulated | -73 | 0.0588 | 10.63 | -1.00 | 1.30 | 0.47 | -0.12 | 0.73 | 2.5 | Fractional motility [2, 12]: 9.35; Fractional motility [2, 13]: -0.16; Fractional motility [2, 14]: 8.26; Fractional motility [2, 15]: -0.06; Fractional motility [2, 16]: 0.49; Fractional motility [2, 17]: 0.31; hypermotility relative to control ([2]; schistosomulae, after 24 h incubation): 11 ± 2 fold; motility phenotype in words ([2]; schistosomulae, long-term, five days after compound washout): all parasites became paralyzed; motility in extended assay with reduced incubation times, in words [2]: did not exhibit a significant change before the 24 hr incubation cut-off
CN1CCC(CNc2ccc3ncc(-c4cccc(OC(F)(F)F)c4)n3n2)CC1 [SGI-1776] | dark |  |  |  |  | 3.98 | 9.87 | 0.50 | 0.36 | 92.5 | activity at 1 µM ([2]; 120 h, Selleckchem customized library secondary screen, 24h, D5, 1 µM): 35%; Fractional motility ([2]; Selleckchem customized library secondary screen, 24h, D1, 10 µM): 121.95; Fractional motility ([2]; Selleckchem customized library secondary screen, 24h, D5, 10 µM): 114.81; stimulated motility relative to control ([2]; schistosomulae, throughout the course of the experiment): > 100 fold
C[C@]12CC[C@@H]3c4ccc(O)cc4CC[C@H]3[C@@H]1CC[C@@H]2O [Estradiol] | blebbing | 23 | 87 | 2.93 | 0.31 | -0.35 | 0.83 | 0.13 | 0.26 | 98 | 
Cc1cc(Nc2ncc(Cl)c(Nc3ccccc3S(=O)(=O)C(C)C)n2)c(OC(C)C)cc1C1CCNCC1 [LDK378] | dark, granulated | 120 | 7 | -0.83 | -0.96 | -0.38 | -0.0381 | -0.63 | -0.31 | 0 | motility phenotype in words (S. mansoni adult worms; 10 μM, long-term after washout): Significant hypomotility
Cc1ccc(C(=O)N(CCCN)[C@@H](c2oc3cc(Cl)ccc3c(=O)c2Cc2ccccc2)C(C)C)cc1 [SB743921] | big, dark | 17 | 74 | 1.32 | -0.89 | 1.14 | 1.48 | -0.87 | 0.0641 | 70 | 
COC(=O)C1=CCCN(C)C1 [Arecoline] | round body, blebbing |  |  | -0.93 | 1.49 | -0.92 | -0.79 | -0.72 | -0.0374 | 96.5 | Fractional motility ([2]; Arecoline and analogs, 24h, D1, 10 µM): -0.93; Fractional motility ([2]; Arecoline and analogs, 24h, D5, 10 µM): 1.49; activity at 1 µM ([2]; 120 h, Arecoline and analogs, 24h, D5, 1 µM): 122%; activity at 1 µM ([2]; Arecoline and analogs, 24h, D1, 1 µM): -93%; Fractional motility [2, 12]: -0.93; Fractional motility [2, 13]: -0.87; Fractional motility [2, 14]: -0.70; Fractional motility [2, 15]: -0.72; Fractional motility [2, 16]: -0.86; Fractional motility [2, 17]: -0.49; motility phenotype in words ([2]; schistosomulae, after 24 h exposure): short term, pronounced paralysis; Fractional motility [2, 5]: -0.93; Fractional motility ([2]; schistosomulae, secondary screen, 24h exposure, read at D5, 1 µM): 1.22; Fractional motility (S. mansoni adult worms; Arecoline and analogs, 10 μM, D1, Female adult worms): -0.92; Fractional motility (S. mansoni adult worms; Arecoline and analogs, 10 μM, D1, Male adult worms): -0.79; Fractional motility (S. mansoni adult worms; Arecoline and analogs, 10 μM, D5, Female adult worms): -0.72; Fractional motility (S. mansoni adult worms; Arecoline and analogs, 10 μM, D5, Male adult worms): -0.0374; motility phenotype in words (S. mansoni adult worms; after 24 h exposure): nearly complete paralysis
CC(C(O)c1ccc(O)cc1)N1CCC(Cc2ccccc2)CC1 (stereo not shown) [Ifenprodil] | abnormal morphology, granulated | 11 | 81 | 0.47 | -0.10 | 1.05 | 1.73 | -0.36 | -0.44 | 98.5 | 
CCCCCCCCOc1ccccc1C(=O)Nc1ccc(C(=O)OCC[N+](C)(CC)CC)cc1 [Otilonium] | blebbing | 31 | -72 | 0.56 | -0.13 | 0.10 | 0.16 | -0.67 | -0.65 | 98.5 | 
